Test results as given in patent US20250318524A1, “ANTIMICROBIAL COATING COMPOSITION AND METHOD OF USE THEREOF” (priority 2024, published 2025).

Assay: Selection of antimicrobial agents: solubility in aqueous solution, stability, compatibility with the coating composition
Conditions: 20 wt. % in aqueous solution, during storage

N=C(NCCCCCCNC(=N)NC(=N)Nc1ccc(Cl)cc1)NC(=N)Nc1ccc(Cl)cc1.O=C(O)[C@H](O)[C@@H](O)[C@H](O)[C@H](O)CO.O=C(O)[C@H](O)[C@@H](O)[C@H](O)[C@H](O)CO [Chlorhexidine gluconate, chlorhexidine gluconate]
colour of solution over time: turned dark brown
